From PubChem BioAssay (NCI)
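Cultured in 96-well plates, cells were exposed to test compound for 48 hours across five concentrations. GI50 = concentration required for 50% inhibition of growth. Definition used: TGI = concentration required for complete inhibition of growth.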

Experiments:
Test in all cases: NCI tumour cell line growth inhibition, 48 h
HOP-92 NSCLC = tested on: HOP-92 NSCLC
SW-620 colon = tested on: SW-620 colon
KM12 colon = tested on: KM12 colon
K-562 leukemia = tested on: K-562 leukemia
NCI-H522 lung = tested on: NCI-H522 lung
UO-31 renal = tested on: UO-31 renal
RPMI-8226 leukemia = tested on: RPMI-8226 leukemia
SK-MEL-28 melanoma = tested on: SK-MEL-28 melanoma
RXF 393 renal = tested on: RXF 393 renal
LOX IMVI melanoma = tested on: LOX IMVI melanoma

O=C(NN1C(=O)C(Cl)C1c1ccc([N+](=O)[O-])cc1)c1ccccc1O (configuration not stated)
TGI (HOP-92 NSCLC): > 100 µM
TGI (SW-620 colon): > 100 µM
TGI (KM12 colon): > 100 µM
TGI (K-562 leukemia): > 100 µM
TGI (NCI-H522 lung): > 100 µM
TGI (UO-31 renal): > 100 µM
TGI (RPMI-8226 leukemia): > 100 µM
TGI (SK-MEL-28 melanoma): > 100 µM
TGI (RXF 393 renal): > 100 µM

CC(=O)O[C@H]1CC[C@H]2[C@@H]3CC[C@H]4Nc5c(cnn5S(C)(=O)=O)C[C@]4(C)[C@H]3CC[C@]12C
TGI (HOP-92 NSCLC): > 100 µM
TGI (KM12 colon): > 100 µM
TGI (K-562 leukemia): > 100 µM
TGI (NCI-H522 lung): > 100 µM
TGI (UO-31 renal): > 100 µM
TGI (RPMI-8226 leukemia): > 100 µM
TGI (SK-MEL-28 melanoma): > 100 µM
TGI (RXF 393 renal): > 100 µM

N/C(=N\N=C/c1cc(Cl)cc(Cl)c1O)NO
TGI (HOP-92 NSCLC): 46.8 µM
TGI (SW-620 colon): 38.5 µM
TGI (KM12 colon): 22.4 µM
TGI (K-562 leukemia): > 46.3 µM
TGI (UO-31 renal): 13.7 µM
TGI (RPMI-8226 leukemia): 39.9 µM
TGI (SK-MEL-28 melanoma): 44.7 µM
TGI (RXF 393 renal): 26.8 µM
TGI (LOX IMVI melanoma): 6.66 µM

CCOC(=O)C1CCn2c(nc3c(=O)n(C)c(=O)n(C)c32)S1 (configuration not stated)
TGI (SW-620 colon): > 100 µM
TGI (K-562 leukemia): > 100 µM
TGI (NCI-H522 lung): > 100 µM
TGI (RPMI-8226 leukemia): > 100 µM
TGI (RXF 393 renal): > 100 µM
TGI (LOX IMVI melanoma): > 100 µM

Cn1nc2ccc3nccc(NCCNCCCl)c3c2n1
TGI (HOP-92 NSCLC): > 100 µM
TGI (SW-620 colon): > 100 µM
TGI (KM12 colon): > 100 µM
TGI (K-562 leukemia): > 100 µM
TGI (NCI-H522 lung): > 100 µM
TGI (UO-31 renal): > 100 µM
TGI (RPMI-8226 leukemia): > 100 µM
TGI (SK-MEL-28 melanoma): > 100 µM
TGI (RXF 393 renal): > 100 µM
TGI (LOX IMVI melanoma): > 100 µM

CCNC(=O)CCCCC(=O)c1c(C)[nH]c(/C=C2\N=C(c3ccc[nH]3)C=C2OC)c1C
GI50 (HOP-92 NSCLC): 2040 nM
TGI (HOP-92 NSCLC): 9.69 µM
GI50 (SW-620 colon): 1940 nM
TGI (SW-620 colon): 3.51 µM
GI50 (KM12 colon): 2170 nM
TGI (KM12 colon): 4.79 µM
GI50 (K-562 leukemia): 3.23 µM
TGI (K-562 leukemia): > 100 µM
GI50 (NCI-H522 lung): 2200 nM
TGI (NCI-H522 lung): 5.48 µM
GI50 (UO-31 renal): 2030 nM
TGI (UO-31 renal): 4.51 µM
GI50 (RPMI-8226 leukemia): 2790 nM
TGI (RPMI-8226 leukemia): > 100 µM
GI50 (SK-MEL-28 melanoma): 1660 nM
TGI (SK-MEL-28 melanoma): 3.09 µM
GI50 (RXF 393 renal): 2970 nM
TGI (RXF 393 renal): 8.41 µM
GI50 (LOX IMVI melanoma): 1760 nM
TGI (LOX IMVI melanoma): 3.65 µM

COC(=O)C[C@](O)(CCC(C)(C)O)C(=O)O[C@@H]1C(OC)=C[C@]23CCCN2CCc2cc4c(cc2[C@H]13)OCO4
TGI (HOP-92 NSCLC): 0.653 µM
TGI (KM12 colon): 1.21 µM
TGI (K-562 leukemia): > 100 µM
TGI (NCI-H522 lung): 0.0597 µM
TGI (UO-31 renal): 7.01 µM
TGI (RPMI-8226 leukemia): 0.701 µM
TGI (SK-MEL-28 melanoma): 0.294 µM
TGI (RXF 393 renal): 0.518 µM
TGI (LOX IMVI melanoma): 0.426 µM

CN(C)S(=O)(=O)c1cccc(-c2nc3sc4c(c3c(=O)[nH]2)CCCC4)c1
GI50 (SW-620 colon): 1780 nM
TGI (SW-620 colon): > 100 µM
GI50 (K-562 leukemia): > 100 µM
TGI (K-562 leukemia): > 100 µM
GI50 (NCI-H522 lung): > 100000 nM
TGI (NCI-H522 lung): > 100 µM
GI50 (RPMI-8226 leukemia): > 100000 nM
TGI (RPMI-8226 leukemia): > 100 µM
GI50 (SK-MEL-28 melanoma): > 100000 nM
TGI (SK-MEL-28 melanoma): > 100 µM

O=C(/C=C/c1ccsc1)c1ccc(Cl)s1
TGI (SW-620 colon): 55.5 µM
TGI (KM12 colon): 35.9 µM
TGI (UO-31 renal): > 100 µM
TGI (RPMI-8226 leukemia): 45.5 µM
TGI (SK-MEL-28 melanoma): > 100 µM
TGI (LOX IMVI melanoma): 37.1 µM

CC1=NN(C(=O)c2ccccc2)C(=O)C1N=Nc1ccccc1C(=O)O (configuration not stated)
TGI (HOP-92 NSCLC): > 100 µM
TGI (SW-620 colon): > 100 µM
TGI (KM12 colon): > 100 µM
TGI (K-562 leukemia): > 29.4 µM
TGI (NCI-H522 lung): 38 µM
TGI (UO-31 renal): 21.8 µM
TGI (RPMI-8226 leukemia): > 100 µM
TGI (SK-MEL-28 melanoma): > 100 µM
TGI (RXF 393 renal): > 100 µM
TGI (LOX IMVI melanoma): > 100 µM

CCOC(=O)CCc1c(C)c2c(O)cc(O)cc2oc1=O
TGI (HOP-92 NSCLC): > 100 µM
TGI (SW-620 colon): > 100 µM
TGI (KM12 colon): > 100 µM
TGI (K-562 leukemia): > 100 µM
TGI (NCI-H522 lung): > 100 µM
TGI (UO-31 renal): > 100 µM
TGI (RPMI-8226 leukemia): > 100 µM
TGI (SK-MEL-28 melanoma): > 100 µM
TGI (RXF 393 renal): > 100 µM
TGI (LOX IMVI melanoma): > 100 µM
